Consider seven compounds from patent publication US5854216A, “Marker for growth hormone-releasing factor receptors” (Universite de Montreal, priority 1996, dated 1998).

Square brackets hold non-standard residues; d marks the D form. Peptide text beside a SMILES is read from it. Bpa = N[C@@H](Cc1ccc(C(=O)c2ccccc2)cc1)C(=O)O; Nle = CCCC[C@H](N)C(=O)O

The experiment has as its target T1, GRF receptors ([^125 I-Tyr^10 ]hGRF(1-44)NH2 binding sites in rat adenopituitary) (Rattus norvegicus, UniProt Q02644).
T1 construct: from tissue; host or cells: rat anterior pituitary homogenate
T1 sequence (Q02644 23-423 isoform Q02644-2 limits assumed): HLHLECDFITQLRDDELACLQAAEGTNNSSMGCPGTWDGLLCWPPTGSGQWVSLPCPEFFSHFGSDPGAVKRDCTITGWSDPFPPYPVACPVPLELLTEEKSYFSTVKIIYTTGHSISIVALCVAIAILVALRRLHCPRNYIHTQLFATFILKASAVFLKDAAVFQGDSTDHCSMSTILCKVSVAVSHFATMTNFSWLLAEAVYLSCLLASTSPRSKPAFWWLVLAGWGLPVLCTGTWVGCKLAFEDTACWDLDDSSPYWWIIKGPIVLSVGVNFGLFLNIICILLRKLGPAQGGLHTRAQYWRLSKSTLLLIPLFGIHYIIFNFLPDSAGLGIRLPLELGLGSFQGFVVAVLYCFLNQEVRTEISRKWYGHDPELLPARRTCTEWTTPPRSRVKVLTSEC
As to the kind of experiment: Competitive binding assay with [^125 I-Tyr^10 ]hGRF(1-44)NH2 on anterior pituitary homogenates. The note with it: for Relative affinity: ratio IC50 of hGRF(1-29)NH2 /IC50 analogue. As for the experimental part: The binding of [^125 I-Tyr^10 ]hGRF(1-44)NH2 was performed on anterior pituitary homogenates as previously described (Gaudreau P. et al., J. Biol. Chem., 1992, 35:1864-1869). Briefly, anterior pituitaries (pit.) were dissected out, rinsed and homogenized for 8 sec with a Micro Ultrasonic Cell Disrupter™, in ice-cold 50 mM Tris-HCl buffer, pH 7.4, containing 5 mM MgCl2 and 5 mM EDTA (1 pit./0.5 ml). These homogenates were used immediately. Competition studies were performed using 35-50 pM [^125 I-Tyr^10 ]hGRF(1-44)NH2 as radio-ligand,50 μl of homogenate (70 to 75 μg of protein), and increasing concentrations of Nε-CF-[Lys^31 ]hGRF or other GRF analogues (0-1000 nM) or with 2.4 μM rGRF(1-29)NH2 for determination of non-specific binding, in a total volume of 300 μl of Tris-HCl buffer, pH 7.4, containing 5 mM EDTA, 5 mM MgCl2 and 0.42% BSA. Incubations were carried out at 23° C. for 60 min and stopped by centrifugation (12,000 g, 5 min, at 4° C.). The radioactivity content in the pellet was measured by gamma counting. The affinity of hGRF(1-29)NH2 was tested in each experiment to assess the validity of the assay and determine the relative affinity of the analogues. […] The Hill values indicate that all these peptides bind to the high and low affinity GRF binding sites found in the anterior pituitary.

[1] abbreviates: Table 11, mean±SD of 2 or mean±SE of 3 experiments for analogues, mean±SE of 11 for hGRF(1-29)NH2.

For `CC[C@H](C)[C@H](NC(=O)[C@H](C)NC(=O)[C@H](CC(=O)O)NC(=O)[C@H](C)NC(=O)[C@H](Cc1ccc(O)cc1)NC(=S)Nc1ccc2c(c1)C(=O)OC21c2ccc(O)cc2Oc2cc(O)ccc21)C(=O)N[C@@H](Cc1ccccc1)C(=O)N[C@H](C(=O)N[C@@H](CC(N)=O)C(=O)N[C@@H](CO)C(=O)N[C@@H](Cc1ccc(O)cc1)C(=O)N[C@@H](CCCNC(=N)N)C(=O)N[C@@H](CCCCN)C(=O)N[C@H](C(=O)N[C@@H](CC(C)C)C(=O)NCC(=O)N[C@@H](CCC(N)=O)C(=O)N[C@@H](CC(C)C)C(=O)N[C@@H](CO)C(=O)N[C@@H](C)C(=O)N[C@@H](CCCNC(=N)N)C(=O)N[C@@H](CCCCN)C(=O)N[C@@H](CC(C)C)C(=O)N[C@@H](CC(C)C)C(=O)N[C@@H](CCC(N)=O)C(=O)N[C@@H](CC(=O)O)C(=O)N[C@H](C(=O)N[C@@H](CCSC)C(=O)N[C@@H](CO)C(=O)N[C@@H](CCCNC(=N)N)C(=O)N[C@@H](CCC(N)=O)C(=O)N[C@@H](CCC(N)=O)C(=O)NCC(=O)N[C@@H](CCC(=O)O)C(=O)N[C@@H](CO)C(=O)N[C@@H](CC(N)=O)C(=O)N[C@@H](CCC(N)=O)C(=O)N[C@@H](CCC(=O)O)C(=O)N[C@@H](CCCNC(=N)N)C(=O)NCC(=O)N[C@@H](C)C(=O)N[C@@H](CCCNC(=N)N)C(=O)N[C@@H](C)C(=O)N[C@@H](CCCNC(=N)N)C(=O)N[C@@H](CC(C)C)C(N)=O)[C@@H](C)CC)C(C)C)[C@@H](C)O` [[Nα-fluorescein-5-thiocarbamyl]hGRF(1-44)NH2], the “affinity for adenopituitary GRF receptors (in words)” value is “nanomolar affinity”. Further, for the setting “Table 4”, the Hill coef. is listed as 0.63 ± 0.07 and the Relative affinity is given as 19 ± 5%. The compound also gave an IC50 (Table 4, mean±SD of 2 experiments in triplicate for analogues, mean±SE of 29 experiments for hGRF(1-29)NH2) of 14 ± 4 nM.

In the case of `CCCC[C@H](NC(=O)[C@@H](NC(=O)[C@H](CC(=O)O)NC(=O)[C@H](CCC(N)=O)NC(=O)[C@H](CC(C)C)NC(=O)[C@H](CC(C)C)NC(=O)[C@H](CCCCN)NC(=O)[C@H](CCCNC(=N)N)NC(=O)[C@H](C)NC(=O)[C@H](CO)NC(=O)[C@H](CC(C)C)NC(=O)[C@H](CCC(N)=O)NC(=O)CNC(=O)[C@H](CC(C)C)NC(=O)[C@@H](NC(=O)[C@H](CCCCN)NC(=O)[C@H](CCCNC(=N)N)NC(=O)[C@H](Cc1ccc(O)cc1)NC(=O)[C@H](Cc1ccc(C(=O)c2ccccc2)cc1)NC(=O)[C@H](CC(N)=O)NC(=O)[C@@H](NC(=O)[C@H](Cc1ccccc1)NC(=O)[C@@H](NC(=O)[C@H](C)NC(=O)[C@H](CC(=O)O)NC(=O)[C@H](C)NC(=O)[C@@H](N)Cc1c[nH]cn1)[C@@H](C)CC)[C@@H](C)O)C(C)C)[C@@H](C)CC)C(=O)N[C@@H](CO)C(=O)N[C@@H](CCCNC(=N)N)C(N)=O` [His^1, bpa^9, Nle^27] (H-HADAIFTN[Bpa]YRKVLGQLSARKLLQDI[Nle]SR-NH2), for the setting “Table 7”, the Hill coef. is 0.70 ± 0.06 and the Relative affinity is listed as 61.0 ± 7%.

In turn, `CC[C@H](C)[C@H](NC(=O)[C@H](C)NC(=O)[C@H](CC(=O)O)NC(=O)[C@@H](C)NC(=O)[C@@H](N)Cc1ccc(O)cc1)C(=O)N[C@@H](Cc1ccccc1)C(=O)N[C@H](C(=O)N[C@@H](CC(N)=O)C(=O)N[C@@H](CO)C(=O)N[C@H](Cc1ccc(O)cc1)C(=O)N[C@@H](CCCNC(=N)N)C(=O)N[C@@H](CCCCN)C(=O)N[C@H](C(=O)N[C@@H](CC(C)C)C(=O)N[C@H](C)C(=O)N[C@@H](CCC(N)=O)C(=O)N[C@@H](CC(C)C)C(=O)N[C@@H](CO)C(=O)N[C@@H](C)C(=O)N[C@@H](CCCNC(=N)N)C(=O)N[C@@H](CCCCN)C(=O)N[C@@H](CCCCN)C(=O)N[C@@H](CC(C)C)C(=O)N[C@@H](CCC(N)=O)C(=O)N[C@@H](CC(=O)O)C(=O)N[C@H](C(=O)N[C@@H](CCSC)C(=O)N[C@@H](CO)C(=O)N[C@@H](CCCNC(=N)N)C(N)=O)[C@@H](C)CC)C(C)C)[C@@H](C)O` [D-Ala^2, D-Tyr^10, D-Ala^15, Lys^22] (H-Y[dA]DAIFTNS[dY]RKVL[dA]QLSARKKLQDIMSR-NH2) had an IC50 under setting [1] of 2.49 ± 0.98 nM.

In the case of `CC[C@H](C)[C@H](NC(=O)[C@H](C)NC(=O)[C@H](CC(=O)O)NC(=O)[C@@H](C)NC(=O)[C@@H](N)Cc1ccc(O)cc1)C(=O)N[C@@H](Cc1ccccc1)C(=O)N[C@H](C(=O)N[C@@H](C)C(=O)N[C@@H](CO)C(=O)N[C@@H](Cc1ccc(O)cc1)C(=O)N[C@@H](CCCNC(=N)N)C(=O)N[C@@H](CCCCN)C(=O)N[C@H](C(=O)N[C@@H](CC(C)C)C(=O)N[C@@H](C)C(=O)N[C@@H](CCC(N)=O)C(=O)N[C@@H](CC(C)C)C(=O)N[C@@H](CO)C(=O)N[C@@H](C)C(=O)N[C@@H](CCCNC(=N)N)C(=O)N[C@@H](CCCCN)C(=O)N[C@@H](CCCCN)C(=O)N[C@@H](CC(C)C)C(=O)N[C@@H](CCC(N)=O)C(=O)N[C@@H](CC(=O)O)C(=O)N[C@H](C(=O)N[C@@H](CCSC)C(=O)N[C@@H](CO)C(=O)N[C@@H](CCCNC(=N)N)C(N)=O)[C@@H](C)CC)C(C)C)[C@@H](C)O` [D-Ala^2, Ala^8, Ala^15, Lys^22] (H-Y[dA]DAIFTASYRKVLAQLSARKKLQDIMSR-NH2; N-terminus assumed), for the setting “Table 11”, the Hill coef. turned out to be 0.53 ± 0.06 and the Relative affinity is 1333 ± 31%. The compound further came in with an IC50 under setting [1] of 0.18 ± 0.08 nM.

Take “4'-benzoyl-phenylalyl^10 ]hGRF(1-29)NH2 [bpa^10]”: the “IC50 (in words)” value is “low nanomolar range” and the “affinity for adenopituitary GRF receptors (in words)” value is listed as “high affinity”.

In the case of `CC[C@H](C)[C@H](NC(=O)[C@H](C)NC(=O)[C@H](CC(=O)O)NC(=O)[C@@H](C)NC(=O)[C@@H](N)Cc1ccc(O)cc1)C(=O)N[C@@H](Cc1ccccc1)C(=O)N[C@H](C(=O)N[C@@H](CC(N)=O)C(=O)N[C@@H](CO)C(=O)N[C@H](Cc1ccc(O)cc1)C(=O)N[C@@H](CCCNC(=N)N)C(=O)N[C@@H](CCCCN)C(=O)N[C@H](C(=O)N[C@@H](CC(C)C)C(=O)NCC(=O)N[C@@H](CCC(N)=O)C(=O)N[C@@H](CC(C)C)C(=O)N[C@@H](CO)C(=O)N[C@@H](C)C(=O)N[C@@H](CCCNC(=N)N)C(=O)N[C@@H](CCCCN)C(=O)N[C@@H](CCCCN)C(=O)N[C@@H](CC(C)C)C(=O)N[C@@H](CCC(N)=O)C(=O)N[C@@H](CC(=O)O)C(=O)N[C@H](C(=O)N[C@@H](CCSC)C(=O)N[C@@H](CO)C(=O)N[C@@H](CCCNC(=N)N)C(N)=O)[C@@H](C)CC)C(C)C)[C@@H](C)O` [D-Ala^2, D-Tyr^10, Lys^22] (H-Y[dA]DAIFTNS[dY]RKVLGQLSARKKLQDIMSR-NH2), the IC50 under setting [1] stood at 0.49 ± 0.27 nM.

As for `CC[C@H](C)[C@H](NC(=O)[C@H](C)NC(=O)[C@H](CC(=O)O)NC(=O)[C@@H](C)NC(=O)[C@@H](N)Cc1ccc(O)cc1)C(=O)N[C@@H](Cc1ccccc1)C(=O)N[C@H](C(=O)N[C@@H](C)C(=O)N[C@@H](CO)C(=O)N[C@H](Cc1ccc(O)cc1)C(=O)N[C@@H](CCCNC(=N)N)C(=O)N[C@@H](CCCCN)C(=O)N[C@H](C(=O)N[C@@H](CC(C)C)C(=O)N[C@@H](C)C(=O)N[C@@H](CCC(N)=O)C(=O)N[C@@H](CC(C)C)C(=O)N[C@@H](CO)C(=O)N[C@@H](C)C(=O)N[C@@H](CCCNC(=N)N)C(=O)N[C@H](CCCCN)C(=O)N[C@@H](CCCCN)C(=O)N[C@@H](CC(C)C)C(=O)N[C@@H](CCC(N)=O)C(=O)N[C@@H](CC(=O)O)C(=O)N[C@H](C(=O)N[C@@H](CCSC)C(=O)N[C@@H](CO)C(=O)N[C@@H](CCCNC(=N)N)C(N)=O)[C@@H](C)CC)C(C)C)[C@@H](C)O` (H-Y[dA]DAIFTAS[dY]RKVLAQLSAR[dK]KLQDIMSR-NH2), under “Table 11”, the Hill coef. was found to be 0.63 ± 0.07 and the Relative affinity was determined as 500 ± 91%.
